Measured values: publication PMC7972453, “The allosteric modulation of complement C5 by knob domain peptides” (eLife, 2021)
Like-named read-outs stand apart in the source and are kept apart here. Bridges are numbered along the chain shown (N, C = ends). Where no end group is shown, it is not given here.

What was measured:
human C5b = molecular target: T1, human C5b (Homo sapiens, UniProt P01031); test: SPR single-cycle kinetics, binding to C5b
T1 construct: Upon cleavage of C5a, the remaining domains of the α-chain undergo a substantial conformational change; C5a was removed using a spin column with 30 kDa cut-off; tissue TCS Biosciences (serum); host or cells: human serum; C5 cleaved in house with CVF, factor B and factor D
T1 sequence (P01031 752-1676 limits assumed): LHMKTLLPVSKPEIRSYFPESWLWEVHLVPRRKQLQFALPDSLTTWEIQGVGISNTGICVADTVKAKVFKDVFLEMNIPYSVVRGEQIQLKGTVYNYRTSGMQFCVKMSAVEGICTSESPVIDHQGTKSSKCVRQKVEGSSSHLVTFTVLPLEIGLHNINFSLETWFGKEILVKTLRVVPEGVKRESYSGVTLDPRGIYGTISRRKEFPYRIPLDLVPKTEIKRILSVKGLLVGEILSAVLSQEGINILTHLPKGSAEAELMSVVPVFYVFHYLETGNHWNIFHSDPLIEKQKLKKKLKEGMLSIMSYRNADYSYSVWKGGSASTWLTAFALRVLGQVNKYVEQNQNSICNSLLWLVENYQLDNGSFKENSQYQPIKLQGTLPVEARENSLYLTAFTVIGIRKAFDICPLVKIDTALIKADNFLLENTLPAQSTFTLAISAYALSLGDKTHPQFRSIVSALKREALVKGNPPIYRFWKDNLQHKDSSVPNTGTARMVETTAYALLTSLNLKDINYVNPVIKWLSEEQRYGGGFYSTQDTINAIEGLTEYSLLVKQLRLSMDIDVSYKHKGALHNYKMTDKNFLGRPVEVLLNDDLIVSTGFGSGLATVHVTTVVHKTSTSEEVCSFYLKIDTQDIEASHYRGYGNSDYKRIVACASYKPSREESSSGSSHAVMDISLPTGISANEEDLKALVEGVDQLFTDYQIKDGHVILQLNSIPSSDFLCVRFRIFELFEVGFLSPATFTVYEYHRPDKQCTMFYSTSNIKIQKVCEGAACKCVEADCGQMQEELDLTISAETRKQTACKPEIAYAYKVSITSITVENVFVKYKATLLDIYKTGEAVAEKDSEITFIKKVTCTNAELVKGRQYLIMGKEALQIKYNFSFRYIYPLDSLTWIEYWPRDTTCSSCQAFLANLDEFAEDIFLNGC
T1 sequence (P01031 19-673 limits assumed): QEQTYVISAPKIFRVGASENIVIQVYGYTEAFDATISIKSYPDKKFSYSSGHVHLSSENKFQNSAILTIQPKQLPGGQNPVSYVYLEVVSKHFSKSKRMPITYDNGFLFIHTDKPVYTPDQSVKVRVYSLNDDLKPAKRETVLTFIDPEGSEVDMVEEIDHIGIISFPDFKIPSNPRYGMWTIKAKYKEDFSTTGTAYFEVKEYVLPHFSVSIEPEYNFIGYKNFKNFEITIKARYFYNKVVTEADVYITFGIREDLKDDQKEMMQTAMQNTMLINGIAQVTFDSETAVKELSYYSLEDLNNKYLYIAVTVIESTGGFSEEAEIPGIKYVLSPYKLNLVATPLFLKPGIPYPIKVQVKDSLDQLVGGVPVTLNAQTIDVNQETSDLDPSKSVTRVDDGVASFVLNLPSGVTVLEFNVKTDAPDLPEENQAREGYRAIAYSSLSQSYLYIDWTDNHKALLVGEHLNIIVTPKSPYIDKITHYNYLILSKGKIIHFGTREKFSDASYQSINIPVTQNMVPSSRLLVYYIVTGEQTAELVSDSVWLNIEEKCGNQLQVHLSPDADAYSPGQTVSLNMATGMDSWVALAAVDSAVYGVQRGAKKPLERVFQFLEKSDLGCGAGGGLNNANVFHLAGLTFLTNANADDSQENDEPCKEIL
Procedure: Human C5 was affinity purified using an E141A, H164A OmCI column ([Macpherson et al., 2018]). Briefly, human serum (TCS Biosciences, Botolph Claydon, UK) was diluted 1:1 (v/v) with phosphate buffered saline (PBS), 20 mM ethylenediaminetetraacetic acid (EDTA), and applied to a 5 mL Hi-Trap NHS column (GE Healthcare, Amersham UK), which contained 20 mg of E141A H164A OmCI protein, at a rate of 1 mL/min. The column was washed with 5× column volumes (CV) of PBS, C5 was then eluted using 2 M MgCl2 and immediately dialysed into PBS. C5b was prepared from human C5 by incubating C5 with CVF, factor B and factor D, at a 1:10 molar ratio, as previously described ([Jore et al., 2016]). C5a was removed using a spin column with 30 kDa cut-off (Thermo Fisher Scientific, Horsham, UK).
(§1) On a Biacore 8K (GE Healthcare, Amersham, UK), human C5b was immobilised on a CM5 chip (GE Healthcare, Amersham, UK). Flow cells were activated using a standard immobilisation protocol: EDC/NHS was mixed at 1:1 ratio (flow rate, 10 µL/min; contact time, 30 s). C5b, at 1 µg/mL, or C5b-6 (Complement Technologies, Tyler, TX), at 2 µg/mL, in pH 4.5 sodium acetate buffer, were immobilised on flow cell two only (flow rate, 10 µL/min; contact time, 420 s). Finally, ethanolamine was applied to both flow cells (flow rate, 10 µL/min; contact time, 420 s). A final immobilisation level of 500–700 RUs was obtained for C5b and 1000–1150 RUs were obtained for C5b-6. Single-cycle kinetics were measured using a seven-point, threefold serial dilution (spanning a range of 1 µM to 1.4 nM) in HBS-EP buffer (GE Healthcare, Amersham, UK). A high flow rate of 40 µL/min was used, with a contact time of 300 s and a dissociation time of 2700 s. Binding to the reference surface was subtracted, and the data were fitted to a single-site binding model using Biacore evaluation software. All sensorgrams were inspected for evidence of mass transport limitation using the flow rate-independent component of the mass transfer constant (tc).
Table 4.1. SPR single-cycle kinetics of knob domains binding to human C5b.

[1] = tested on: classical pathway C5b deposition (complement C5); test: Classical pathway C5b deposition ELISA; format: biochemical, human; conditions: n=3 (K8: n=6), ND* = Not detected
Source text: Figure 1. Functional modulation of C5 via knob domain peptides. […] Following activation of C1q via antibody Fc, C4 and C2 are cleaved and form C4bC2a (the CP C3 convertase) which cleaves C3 into C3a (not shown) and C3b. At high C3b concentrations, C4bC2aC3b (the CP […]) forms and cleaves C5 into C5a and C5b. C5b associates with C6 and forms the membrane attack complex (MAC) with C7, C8, and multiple copies of C9. […] In the presence of factor B and factor D, C3bBb (the AP C3 convertase) generates additional C3b, prompting formation of C3bBbC3b (the AP C5 convertase), which cleaves C5 into C5a and C5b, driving MAC formation. CP-driven ELISAs (C) and AP-driven ELISAs (D) are shown. For both pathways, the inhibition of C3d (the surface-associated domain of C3b, which is upstream of C5 inhibition), C5a release, and C5b neo-epitope formation and C9 deposition were tracked within the MAC. […] For the AP assays, 5% serum (v/v) gives a putative C5 concentration of 20 nM. For the CP assays, 1% serum (v/v) gives a putative C5 concentration of 4 nM, based on a reported C5 serum concentration of 397 nM/75 µg/mL ([Sjöholm, 1975]).
For the C5b ELISA, assays were run using the CP and AP Complement functional ELISA kits (Svar Life Science, Malmö, Sweden). For sample preparation, serum was diluted as per the respective protocol for the CP and AP assays. […]

human C5b-6 = human C5b-6 (Homo sapiens, UniProt P01031+P13671); test: SPR single-cycle kinetics, binding to C5b-6; parameters: Upon cleavage of C5a, the remaining domains of the α-chain undergo a substantial conformational change; purchased Complement Technologies, Tyler, TX
Chain of human C5b-6 (P01031 752-1676 limits assumed): as the sequence (P01031 752-1676 limits assumed) above
Chain of human C5b-6 (P01031 19-673 limits assumed): as the sequence (P01031 19-673 limits assumed) above
Chain of human C5b-6 (P13671 22-934 partner): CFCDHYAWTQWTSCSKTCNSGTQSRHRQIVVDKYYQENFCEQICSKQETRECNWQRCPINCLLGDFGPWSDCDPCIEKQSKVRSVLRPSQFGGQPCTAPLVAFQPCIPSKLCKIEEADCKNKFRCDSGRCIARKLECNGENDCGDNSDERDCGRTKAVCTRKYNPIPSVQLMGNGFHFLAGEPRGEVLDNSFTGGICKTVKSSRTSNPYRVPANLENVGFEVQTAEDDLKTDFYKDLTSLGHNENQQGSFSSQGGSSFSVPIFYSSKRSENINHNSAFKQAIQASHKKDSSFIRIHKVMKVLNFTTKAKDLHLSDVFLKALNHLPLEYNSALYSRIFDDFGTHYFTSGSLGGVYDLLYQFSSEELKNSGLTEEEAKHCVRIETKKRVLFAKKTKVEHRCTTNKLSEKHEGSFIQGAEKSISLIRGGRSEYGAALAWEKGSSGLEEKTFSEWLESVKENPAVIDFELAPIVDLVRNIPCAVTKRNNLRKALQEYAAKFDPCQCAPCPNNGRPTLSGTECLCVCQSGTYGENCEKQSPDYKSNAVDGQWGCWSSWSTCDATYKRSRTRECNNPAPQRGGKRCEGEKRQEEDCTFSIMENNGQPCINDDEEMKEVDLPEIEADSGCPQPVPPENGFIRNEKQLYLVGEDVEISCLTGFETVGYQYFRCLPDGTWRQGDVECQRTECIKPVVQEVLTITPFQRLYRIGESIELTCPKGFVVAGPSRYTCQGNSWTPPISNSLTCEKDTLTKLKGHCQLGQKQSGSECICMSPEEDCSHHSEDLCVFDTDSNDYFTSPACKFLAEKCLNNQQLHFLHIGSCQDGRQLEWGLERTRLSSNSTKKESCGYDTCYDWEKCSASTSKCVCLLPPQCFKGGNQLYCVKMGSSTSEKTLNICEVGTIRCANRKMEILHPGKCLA
Procedure: as §1
Table 4.2. SPR single-cycle kinetics of knob domains binding to human C5b-6.

## SVCPDGFDWGYGCAAGSSRFCTRHDWCCYDERADSHTYGFCTGNRVENLYFQ (disulfide 3-28, 13-21, 27-41) [K8]
Human C5b; SPR single-cycle kinetics
  binding to C5b (in words): did not bind C5b
Human C5b; replicate n=1
  Stoichiometric ratio: 0.1
  comment (binding): Non-binding
Human C5b; replicate n=2
  Stoichiometric ratio: 0.1
  comment (binding): Non-binding
Human C5b; replicate n=3
  Stoichiometric ratio: 0.2
  comment (binding): Non-binding
Human C5b; summary of n=3
  Mean stoichiometric ratio: 0.1
  comment (binding): Non-binding
[1]; CP C5b ELISA, preincubated 15 min RT
  Average Emax: 68.2%
[1]; CP functional ELISA kit (Svar), peptide preincubated with human serum 15 min RT, CP 1% serum, putative 4 nM C5, read-out: Geomean IC50
  IC50: 9.3 nM
Human C5b-6; read-out: mean koff, Biacore 8K, HBS-EP, summary of n=4
  koff: 0.000295 s⁻¹
Human C5b-6; read-out: mean kon, Biacore 8K, HBS-EP, summary of n=4
  kon: 12500 M⁻¹ s⁻¹
Human C5b-6; replicate n=1
  Stoichiometric ratio: 0.3
  koff: 0.000282 s⁻¹
  kon: 10100 M⁻¹ s⁻¹
Human C5b-6; replicate n=2
  Stoichiometric ratio: 0.3
  koff: 0.000384 s⁻¹
  kon: 12100 M⁻¹ s⁻¹
Human C5b-6; replicate n=3
  Stoichiometric ratio: 0.5
  koff: 0.00024 s⁻¹
Human C5b-6; replicate n=4
  Stoichiometric ratio: 0.3
  koff: 0.000277 s⁻¹
  kon: 15600 M⁻¹ s⁻¹
Human C5b-6; summary of n=4
  Mean stoichiometric ratio: 0.4
